Experimental data reported in patent publication US20230391881A1, “COMPOSITIONS AND METHODS FOR OVERCOMING DR5-INDUCED IMMUNE EVASION BY SOLID TUMORS” (University of Virginia Patent Foundation, priority 2020, published 2023).

Assays:
[1] = test system: UCD52 TNBC PDX tumors; experiment: PD-L1 IHC of KMTR2 treated UCD52 TNBC PDX tumors; assay type: in vivo, mouse; settings: KMTR2 50 μg, 4 doses; NSG mice
[2] = test system: DR5; experiment: DR5 knockout (DR5-KO) versus DR5-WT TNBC cells: viability, PD-L1, S5a, ubiquitin; assay type: cell-based, human; settings: for overall ubiquitin signal in lysates: DR5 sensitive versus DR5-KO cells (FIG. 2P)
Method: In Vitro Cell Viability Assays. Cell viability following Apo2L, lexatumumab, KMTR2, tigatuzumab, AMG-655, MD5-1, avelu-MD5, etc. treatments as indicated in the Figures either alone in combination with inhibitors (ROCK1, ERK, caspase inhibitors, etc.) or in combination with an anti-Fc reagent (For tigatuzumab, AMG-655, MD5-1, etc.) were determined using the ALAMARBLUE™ cell viability assays and MTT cell proliferation assays as per the manufacturer's protocols (ThermoFisher Scientific). Briefly, cells were treated with increasing concentration of various antibodies as indicated along with relevant positive and negative control antibodies for 6 hours, 24 hours, or 48 hours as indicated. For each cell killing assay the figures show the representative profiles from n=2-4 with different cultured confluency. Whenever used for immunoblotting, following antibodies treatment caspase-3 processing in tumor cells was monitored using selective antibodies that recognize cleaved human caspase-3 or total caspase-3 (Catalog Nos. 9661 and 9668; Cell Signaling Technology, Danvers, Massachusetts, United States of America). TRAIL-R2 receptor in oligomerization was determined using immunoblotting assays (Cell Signaling Technology Rabbit mAb, Catalog No. 8074). Cell viability was additionally examined by flow cytometry based apoptotic detection methods using 7-aminoactinomycin D (7-ADD) exclusion from live cells.
Western Blotting. Cells were cultured overnight in tissue culture-treated 6-well plates prior to treatment. After antibody treatment for 48 hours or another indicated time, cells were rinsed with PBS and then lysed with RIPA buffer supplemented with protease inhibitor cocktail (ThermoFisher Scientific). Centrifugation at 14000 rpm for 30 minutes cleared lysates and protein was quantified by PIERCE™ BCA Protein Assay Kit (ThermoFisher Scientific). Western blotting was performed using the Bio-Rad SDS-PAGE Gel system. Briefly, 30 μg of protein was resolved on 10% Bis-Tris gels and then transferred onto PVDF membrane. Membranes were blocked for one hour at room temperature in TBS+0.1% Tween (TBST) with 5% non-fat dry milk. Membranes were probed overnight at 4° C. with primary antibodies. Membranes were washed three times in TBST and then incubated with anti-rabbit or anti-mouse secondary antibodies (1/10,000 dilution, coupled to peroxidase) for 1 hour at room temperature. Membranes were then washed three times with TBST and immunocomplexes were detected with SUPERSIGNAL™ West Pico Chemiluminescent Substrate (ThermoFisher Scientific). […]
Flow cytometry. The cell surface expression of PD-L1, CD47, huDR5, muDR5, CD8, CD4, CD25 etc. was analyzed by flow cytometry. […] The data was analyzed by FCS Express (De Novo Software, Los Angeles, California, United States of America) and FlowJo. […]

[3] = test system: PD-L1; experiment: Western blotting / flow cytometry of PD-L1 and regulators in tumor cells; assay type: cell-based, human; settings: ovarian and TNBC tumor cells
Method: Western Blotting. Cells were cultured overnight in tissue culture-treated 6-well plates prior to treatment. After antibody treatment for 48 hours or another indicated time, cells were rinsed with PBS and then lysed with RIPA buffer supplemented with protease inhibitor cocktail (ThermoFisher Scientific). Centrifugation at 14000 rpm for 30 minutes cleared lysates and protein was quantified by PIERCE™ BCA Protein Assay Kit (ThermoFisher Scientific). Western blotting was performed using the Bio-Rad SDS-PAGE Gel system. Briefly, 30 μg of protein was resolved on 10% Bis-Tris gels and then transferred onto PVDF membrane. Membranes were blocked for one hour at room temperature in TBS+0.1% Tween (TBST) with 5% non-fat dry milk. Membranes were probed overnight at 4° C. with primary antibodies. Membranes were washed three times in TBST and then incubated with anti-rabbit or anti-mouse secondary antibodies (1/10,000 dilution, coupled to peroxidase) for 1 hour at room temperature. Membranes were then washed three times with TBST and immunocomplexes were detected with SUPERSIGNAL™ West Pico Chemiluminescent Substrate (ThermoFisher Scientific). Images were taken using a Bio-Rad Gel Doc Imager system.
(§1) Flow cytometry. The cell surface expression of PD-L1, CD47, huDR5, muDR5, CD8, CD4, CD25 etc. was analyzed by flow cytometry. Overnight grown tumors were trypsinized and suspended in FACS buffer (PBS containing 2% FBS). Single cell suspensions were then incubated with primary DR4/DR5 antibodies for 1 hour at 4° C. with gentle mixing. Following wash with FACS buffer, the cells were then incubated with fluorescently labeled anti-Rabbit antibody for 1 hour. Cells were washed and flow cytometry was performed using a BD FACSCALIBUR™ flow cytometer. The data was analyzed by FCS Express (De Novo Software, Los Angeles, California, United States of America) and FlowJo.

[4] = test system: DR5-KO (MDA-MB-231) cells; experiment: ApoEV isolation and PD-L1 transfer to DR5-KO cells; assay type: cell-based, human; settings: ApoEVs from treated DR5-WT cells
Method: FIG. 12. TNF-α stabilized PD-L1 is not shuttled to ApoEVs. ApoEVs were isolated from DR5-WT MDA-MB-436 and OVCAR-3 cells after treatment with IgG1, TNF-α and lexatumumab. Isolated ApoEVs were incubated on to DR5-KO (MDA-MB-231) cells. After 24 hours surface PD-L1 of DR5-KO cells was analyze by flow cytometry. Top panel show secondary antibody control, IgG1 treatment control and basal level PD-L1 levels on MDA-MB-231 DR5 KO cells.
ApoEV isolation. 4×10^6 cells were seeded onto 3×150 mm dishes in a total volume of 45 ml of DMEM supplemented with 10% exosome-free FBS and grown for 12 hours. Media of each plate was changed with serum-free medium and incubate the cells at 37° C. for 6-12 hours, with or without various antibody treatments. For all ApoEV studies, the tissue culture media was spun at 8000×g for 15 minutes. The pellet was discarded and the supernatants (SN) were passed through 0.22 um filter. ApoEVs were isolated by the ultracentrifugation method. Collected tissue culture media was spun at 5,000×g for 10 minutes to remove contaminating cellular particles, and the resulting supernatant was spun at 80,000×g for 4 hours at 4° C. to pellet ApoEVs. ApoEV pellets were resuspended in 500 μl of serum-free medium and were used for either cellular treatments, dot blots assays and immunoblotting assays.

[5] = test system: MDA-MB-436 cells; experiment: Flow cytometry of surface PD-L1 on tumor cells treated with DR5 agonist antibodies (FIG. 20B); assay type: cell-based, human
Method: FIGS. 20A-20C. (FIG. 20A) 3 biological replicates of total PD-L1 and GAPDH from triple negative breast cancer cell (MDAMB-436) and ovarian cell (OVCAR-3) lysates treated with lexatumumab for 6 hours. (FIG. 20B) Raw mean fluorescent intensity (MFI) and % positive PD-L1 counts from the cells treated with indicated DR5 agonist antibodies. MFI values are shown on the top of solid color bars. There are multiple instances (shown on the top) where despite having lower % positive PD-L1 population, MFI values were higher after indicated DR5 agonist treatments. As an example, in MDA-MB-436 cells treated with tigatuzumab and lexatumumab, lexatumumab treated cells had higher % positive PD-L1 population (9.32 vs 11.97), however MFI was higher in tigatuzumab treated population (107.54 vs 45.87). (FIG. 20C) KMTR2 treated (50 μg, 4 doses) UCD52 TNBC PDX tumors were stained for PD-L1 using immunohistochemistry (IHC). 3 additional representative images are shown. Also see FIG. 1L.
as §1
PD-L1 surface expression analysis of tumor derived cells. The cell surface expression of PD-L1 from tumor-derived cell was analyzed by flow cytometry. Isolated cells were suspended in FACS buffer (PBS containing 1% FBS). The single cell suspension was then incubated with primary PD-L1 antibodies (1:400 dilution) for 1 hour at 4° C. with gentle mixing. […] Following 3 times wash with FACS buffer, the cells were then incubated with fluorescently labeled (alexa 488) anti-Rabbit secondary antibody for 1 hour. Cells were then washed 3-4 times with FACS buffer and flow cytometry was performed using BD FACSCALIBUR™. The data was analyzed by FCS Express (De Novo Software) and FlowJo software.

[6] = test system: chi-G4S-DR5 stable 4T1 tumors; experiment: Surface PD-L1 flow cytometry of cells recovered from Chi-G4S-DR5 stable 4T1 tumors; assay type: in vivo, mouse; settings: 4 doses; flow cytometry of recovered tumors (FIGS. 5G, 23)
Excerpt: Mechanical dissociation of tumors to obtain single-cell suspensions. Viable single cells from tumor tissues were isolated as described in Leelatian et al, 2017. Briefly, after indicated antibody treatments (4-6 doses) mice were euthanized and tumors were harvested using sterile scissors and forceps. After excision of tumor, they were minced into small pieces in sterile RPMI-1640 media using two single-edged razor blades. Small tumor pieces were passed through a 70 µm cell strainer in sterile RPMI-1640 media. A rubber plunger and syringe were used to mesh the dissociated cells through the cell strainer and media containing dissociated cells was collected onto a sterile labeled conical tube. Dissociated tumor cells were subjected to flow cytometry (FACS) analysis for PD-L1, DR5, N-cadherin, FOLR1, CD47 etc. surface expression as described under flow cytometry protocol.
PD-L1 surface expression analysis of tumor derived cells. The cell surface expression of PD-L1 from tumor-derived cell was analyzed by flow cytometry. Isolated cells were suspended in FACS buffer (PBS containing 1% FBS). […] The data was analyzed by FCS Express (De Novo Software) and FlowJo software.
Chimeric DR5 cloning and Human DR5 agonist testing studies in Balb/c animals. […] Tumors were monitored as described herein above. […]

DR5, sequence (O14763 56-184 limits assumed): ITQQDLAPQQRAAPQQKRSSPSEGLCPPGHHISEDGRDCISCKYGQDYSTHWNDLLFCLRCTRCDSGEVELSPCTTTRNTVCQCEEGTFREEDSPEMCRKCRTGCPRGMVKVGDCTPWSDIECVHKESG

KMTR2: Monospecific Antibody, Human DR5 activator; VL and VH SEQ ID NOs: 7 and 8
PD-L1 stabilization by IHC [1]: PD-L1 stabilization was also confirmed
overall ubiquitin signal in lysates [2]: increased only in DR5 sensitive cell lysates

TNF-α
PD-L1 and CSN5 stabilization in lysates [3]: stabilized both PD-L1 and CSN5
PD-L1 stabilization / surface mobilization in DR5-KO lines ([2]; DR5-KO compared to DR5-WT cells): remained unchanged
S5a/PSMD4 levels ([2]; MDA-MB-436 WT and DR5-KO cells): stabilized PD-L1 without affecting S5a levels
PD-L1 in ApoEVs / shuttling of PD-L1 via ApoEVs [4]: did not shuttle significant amount of PD-L1 via ApoEVs

lexatumumab: Monospecific Antibody, Human DR5 activator; VL and VH SEQ ID NOs: 1 and 2
PD-L1 mean fluorescent intensity (MFI) ([5]; MDA-MB-436 cells treated with DR5 agonist antibody (FIG. 20B)): 45.87
% positive PD-L1 population ([5]; MDA-MB-436 cells treated with DR5 agonist antibody, raw flow cytometry counts (FIG. 20B)): 11.97%
PD-L1 on cell surface of tumor cells [6]: higher overall PD-L1 on cell surface
overall ubiquitin signal in lysates [2]: increased only in DR5 sensitive cell lysates
